Measured values from US9314485B2, “Use of PI3K M-TOR and AKT inhibitors to induce FOXP3 expression and generate regulatory T cells” (Medical Research Council, priority 2006, dated 2016).

Experiments:
S6 ribosomal protein = S6 ribosomal protein phosphorylation (pS6) by intracellular staining/immunoblot; assay type: cell-based, mouse; details: 18 h activated cells; rapamycin 25 nM, Ly294002 10 g/ml as printed; within one hour
Experimental: Mouse strains, cell sorting and culture Animal work was carried out according the Animals (Scientific Procedures) Act, UK. Lymph node (LN) cells were stained, analysed and sorted by flow cytometry as described (Cobb et al 2005 J. Exp. Med. 201: 1367-1373). Intracellular staining for Foxp3 protein was done as advised by the manufacturers (eBiosciences.com). The phosphorylation syatus of S6 ribosomal protein was determined using anti pS6 Ser235/236 (Cellsignaling cat.no. 2211, http://www.cellsignal.com) using the eBioscience Foxp3 staining kit and anti rabbit IgG-FITC or IgG-Cy5 (Jackson Immunoresearch). […] CD4 T cell CFSE profiles were recorded between 48 and 72 hours later.
To monitor the activity of the PI3K/mTOR axis in response to TCR signaling, TCR signal withdrawal and treatment with rapamycin and Ly294002, we analysed the level of phosphorylated S6 ribosomal protein (pS6), the target of p70 S6 kinase, which is directly regulated by mTOR. […]
Mice, Cell Sorting and Culture. […] Lymph node (LN) cells or thymocytes from wild type were stained, analysed and sorted by flow cytometry as described (Thompson et al., 2007 Immunity VoI 26 pp 335-344) from wild type (C57BL/6, BALB/c or C57BL/6×129) mice or from Rag1 deficient H2^b AND TCR transgenic mice. […] CD4 T cell CFSE profiles were recorded between 48 and 72 hours later.

Smad2 = Smad2 phosphorylation western blot; assay type: cell-based, mouse; details: serum free medium, TGFβ 1 ng/ml 90 minutes, inhibitors 90 minutes or 8 hours
From the text: TGFβ is known as a powerful inducer of Foxp3 expression in conventional CD4 T cells in vitro and we therefore asked whether TGFβ mediates the induction of Foxp3 by TCR signal deprivation of newly activated T cells and PI3-K/mTOR inhibitors. Since cell culture medium supplemented with FCS contains TGFβ, we carried out the experiments described in this section in serum free lymphocyte culture medium (AIM-V, Invitrogen). […] The binding of TGFβ binding to ALK5 and TGFβ receptor II (TGFβRII) results in the phosphorylation of receptor-associated Smad2 and -3, which subsequently associate with co-Smads, translocate to the nucleus and act as transcriptional regulators. The phosphorylation of Smad proteins therefore provides a sensitive indicator of TGFβ signaling. Naive LN T cells were activated for 18 hours in serum free medium and then exposed to TGFβ (1 ng/ml) […], TCR signal deprivation, or TCR signal deprivation plus rapamycin and Ly294002. […] The blot was subsequently probed with anti Smad2/3 as a loading control.

TGFβ
S6 phosphorylation (pS6) (S6 ribosomal protein): reduced pS6
phosphorylation of Smad2 (pSmad2 S465/467) (Smad2): readily detectable
phosphorylation of Smad2 (pSmad2 S465/467) (Smad2; listed as TGF): strong phosphorylation of Smad2
